Results as given in the NIST ThermoML archive (doi:10.1021/je0301794).
± gives the expanded uncertainty stated by the source.

Experiments:
[1] = xn = mol fraction of the nth substance listed; conditions: 101.3 kPa, Liquid
[2] = excess molar enthalpy (molar enthalpy of mixing); xn = mol fraction of the nth substance listed; conditions: 318.15 K, 101.3 kPa, Liquid

COC(=O)OC [dimethyl carbonate] + CCCCCCC
[1]
Conditions	mass density [kg/m3]
293.15 K, x1 = 0.05	694 ± 0.5
293.15 K, x1 = 0.094	703.5 ± 0.5
293.15 K, x1 = 0.2039	729.2 ± 0.5
293.15 K, x1 = 0.324	761.2 ± 0.5
293.15 K, x1 = 0.4062	785.9 ± 0.5
293.15 K, x1 = 0.5059	819.4 ± 0.5
293.15 K, x1 = 0.6099	859.2 ± 0.5
293.15 K, x1 = 0.6987	897.8 ± 0.5
293.15 K, x1 = 0.8086	952.7 ± 0.5
293.15 K, x1 = 0.9029	1006.6 ± 0.5
293.15 K, x1 = 0.9504	1036.6 ± 0.5
293.15 K, x1 = 1	1070 ± 0.6
298.15 K, x1 = 0.0594	691.6 ± 0.5
298.15 K, x1 = 0.1204	704.9 ± 0.5
298.15 K, x1 = 0.2132	726.7 ± 0.5
298.15 K, x1 = 0.3135	753.1 ± 0.5
298.15 K, x1 = 0.4018	779 ± 0.5
298.15 K, x1 = 0.4716	801.6 ± 0.5
298.15 K, x1 = 0.6051	851 ± 0.5
298.15 K, x1 = 0.6946	889.3 ± 0.5
298.15 K, x1 = 0.8031	943 ± 0.5
298.15 K, x1 = 0.902	999.5 ± 0.5
298.15 K, x1 = 0.9477	1028.2 ± 0.5
298.15 K, x1 = 1	1063.5 ± 0.6
303.15 K, x1 = 0.0586	687.2 ± 0.5
303.15 K, x1 = 0.0873	693.2 ± 0.5
303.15 K, x1 = 0.1996	718.7 ± 0.5
303.15 K, x1 = 0.299	744.2 ± 0.5
303.15 K, x1 = 0.4009	773.6 ± 0.5
303.15 K, x1 = 0.5081	808.9 ± 0.5
303.15 K, x1 = 0.6069	846.2 ± 0.5
303.15 K, x1 = 0.6979	885.2 ± 0.5
303.15 K, x1 = 0.8051	938 ± 0.5
303.15 K, x1 = 0.9069	995.8 ± 0.5
303.15 K, x1 = 0.9638	1031.6 ± 0.5
303.15 K, x1 = 1	1056.5 ± 0.6
313.15 K, x1 = 0.0649	679.3 ± 0.5
313.15 K, x1 = 0.1157	690.1 ± 0.5
313.15 K, x1 = 0.3432	746.6 ± 0.5
313.15 K, x1 = 0.4378	775.1 ± 0.5
313.15 K, x1 = 0.5458	812 ± 0.5
313.15 K, x1 = 0.6259	842.9 ± 0.5
313.15 K, x1 = 0.7191	883.2 ± 0.5
313.15 K, x1 = 0.8128	929.3 ± 0.5
313.15 K, x1 = 0.8798	966.5 ± 0.5
313.15 K, x1 = 0.9536	1012 ± 0.5
313.15 K, x1 = 0.9822	1031.1 ± 0.5
313.15 K, x1 = 1	1043.4 ± 0.5
318.15 K, x1 = 0.0693	675.1 ± 0.5
318.15 K, x1 = 0.1044	682.5 ± 0.5
318.15 K, x1 = 0.1947	702.6 ± 0.5
318.15 K, x1 = 0.2734	722 ± 0.5
318.15 K, x1 = 0.3512	743.2 ± 0.5
318.15 K, x1 = 0.419	763.3 ± 0.5
318.15 K, x1 = 0.4889	785.9 ± 0.5
318.15 K, x1 = 0.5518	808.1 ± 0.5
318.15 K, x1 = 0.61	830.3 ± 0.5
318.15 K, x1 = 0.6632	852 ± 0.5
318.15 K, x1 = 0.7142	874.6 ± 0.5
318.15 K, x1 = 0.762	897.1 ± 0.5
318.15 K, x1 = 0.8077	920.1 ± 0.5
318.15 K, x1 = 0.8514	943.8 ± 0.5
318.15 K, x1 = 0.8883	965 ± 0.5
318.15 K, x1 = 0.9289	989.7 ± 0.5
318.15 K, x1 = 0.964	1012.4 ± 0.5
318.15 K, x1 = 1	1036.9 ± 0.5

[2]
Conditions	excess molar enthalpy [kcal/mol]
x1 = 0.095	0.191 ± 0.0043
x1 = 0.1875	0.317 ± 0.00693
x1 = 0.2819	0.413 ± 0.00884
x1 = 0.3677	0.474 ± 0.01
x1 = 0.4442	0.503 ± 0.0105
x1 = 0.5016	0.512 ± 0.0108
x1 = 0.5205	0.512 ± 0.0108
x1 = 0.5497	0.511 ± 0.0108
x1 = 0.5542	0.51 ± 0.0108
x1 = 0.5906	0.505 ± 0.0105
x1 = 0.6326	0.493 ± 0.0103
x1 = 0.674	0.474 ± 0.01
x1 = 0.7188	0.443 ± 0.00932
x1 = 0.7582	0.405 ± 0.0086
x1 = 0.8053	0.357 ± 0.00765
x1 = 0.8488	0.299 ± 0.00645
x1 = 0.892	0.23 ± 0.00502
x1 = 0.929	0.157 ± 0.00359
x1 = 0.9663	0.0784 ± 0.00215
x1 = 1	0 ± 0.000478

CCCCCCCCCC [decane] + COC(=O)OC
[1]
Conditions	mass density [kg/m3]
298.15 K, x2 = 0	726.2 ± 0.5
298.15 K, x2 = 0.0043	726.8 ± 0.5
298.15 K, x2 = 0.0235	729.1 ± 0.5
298.15 K, x2 = 0.0888	737.6 ± 0.5
298.15 K, x2 = 0.1363	744.6 ± 0.5
298.15 K, x2 = 0.1922	753.4 ± 0.5
298.15 K, x2 = 0.2402	761.6 ± 0.5
298.15 K, x2 = 0.3348	779.8 ± 0.5
298.15 K, x2 = 0.4201	798.8 ± 0.5
298.15 K, x2 = 0.4876	816 ± 0.5
298.15 K, x2 = 0.5607	837.1 ± 0.5
298.15 K, x2 = 0.6214	856.8 ± 0.5
298.15 K, x2 = 0.6754	876.5 ± 0.5
298.15 K, x2 = 0.7219	895.2 ± 0.5
298.15 K, x2 = 0.7702	916.6 ± 0.5
298.15 K, x2 = 0.8104	936.3 ± 0.5
298.15 K, x2 = 0.8421	953.4 ± 0.5
298.15 K, x2 = 0.8849	978.5 ± 0.5
298.15 K, x2 = 0.9135	997 ± 0.5
298.15 K, x2 = 0.9424	1017.3 ± 0.5
298.15 K, x2 = 0.9709	1039 ± 0.5
303.15 K, x2 = 0	722.3 ± 0.5
303.15 K, x2 = 0.0489	728.4 ± 0.5
303.15 K, x2 = 0.0996	735.2 ± 0.5
303.15 K, x2 = 0.1998	750.3 ± 0.5
303.15 K, x2 = 0.299	768.1 ± 0.5
303.15 K, x2 = 0.3991	789.2 ± 0.5
303.15 K, x2 = 0.4992	814.3 ± 0.5
303.15 K, x2 = 0.6023	845.3 ± 0.5
303.15 K, x2 = 0.7013	881.5 ± 0.5
303.15 K, x2 = 0.8008	925.9 ± 0.5
303.15 K, x2 = 0.9012	982.6 ± 0.5
303.15 K, x2 = 0.9505	1016.6 ± 0.5
313.15 K, x2 = 0	714.7 ± 0.5
313.15 K, x2 = 0.0489	720.6 ± 0.5
313.15 K, x2 = 0.0996	727.2 ± 0.5
313.15 K, x2 = 0.1998	742 ± 0.5
313.15 K, x2 = 0.299	759.4 ± 0.5
313.15 K, x2 = 0.3991	780.1 ± 0.5
313.15 K, x2 = 0.4992	804.7 ± 0.5
313.15 K, x2 = 0.6023	835.2 ± 0.5
313.15 K, x2 = 0.7013	870.6 ± 0.5
313.15 K, x2 = 0.8008	914.4 ± 0.5
313.15 K, x2 = 0.9012	970.3 ± 0.5
313.15 K, x2 = 0.9505	1003.6 ± 0.5
318.15 K, x2 = 0	710.9 ± 0.5
318.15 K, x2 = 0.0902	722.1 ± 0.5
318.15 K, x2 = 0.1142	725.4 ± 0.5
318.15 K, x2 = 0.1922	736.9 ± 0.5
318.15 K, x2 = 0.3283	760.8 ± 0.5
318.15 K, x2 = 0.4184	780 ± 0.5
318.15 K, x2 = 0.4855	796.3 ± 0.5
318.15 K, x2 = 0.4962	799.1 ± 0.5
318.15 K, x2 = 0.5666	818.8 ± 0.5
318.15 K, x2 = 0.6142	833.9 ± 0.5
318.15 K, x2 = 0.6732	854.3 ± 0.5
318.15 K, x2 = 0.728	875.8 ± 0.5
318.15 K, x2 = 0.7735	895.6 ± 0.5
318.15 K, x2 = 0.8087	912.6 ± 0.5
318.15 K, x2 = 0.8503	934.4 ± 0.5
318.15 K, x2 = 0.8944	960.1 ± 0.5
318.15 K, x2 = 0.9252	980 ± 0.5
318.15 K, x2 = 0.9473	995.6 ± 0.5
318.15 K, x2 = 0.9768	1017.9 ± 0.5

[2]
Conditions	excess molar enthalpy [kcal/mol]
x2 = 0	0 ± 0.000478
x2 = 0.0948	0.19 ± 0.0043
x2 = 0.1964	0.341 ± 0.00741
x2 = 0.29	0.453 ± 0.00956
x2 = 0.3757	0.524 ± 0.011
x2 = 0.4516	0.561 ± 0.0117
x2 = 0.5089	0.572 ± 0.012
x2 = 0.5556	0.573 ± 0.012
x2 = 0.5944	0.568 ± 0.012
x2 = 0.6291	0.56 ± 0.0117
x2 = 0.6358	0.556 ± 0.0117
x2 = 0.6748	0.539 ± 0.0112
x2 = 0.7141	0.518 ± 0.0108
x2 = 0.7558	0.484 ± 0.0103
x2 = 0.7914	0.445 ± 0.00932
x2 = 0.8294	0.393 ± 0.00837
x2 = 0.8725	0.33 ± 0.00717
x2 = 0.9085	0.255 ± 0.0055
x2 = 0.9429	0.174 ± 0.00406
x2 = 0.9788	0.0741 ± 0.00191
